Laboratory results taken from patent US11311598B2, “Peptides and analogs for use in the treatment of oral mucositis” (Soligenix, Inc., priority 2013, dated 2022).
Entries after “also recorded” stand apart in the source; their conditions may differ. Where no end group is shown, it is not given here.

How the values were obtained:
human normal blood cells = assay: proliferation of human normal blood cells in vitro; assay type: cell-based
MRSA (strain USA300) = assay: MRSA bacteremia model in nu/nu mice lacking T-cells; assay type: in vivo, mouse; conditions: female nu/nu mice, single dose 50 mg/kg IV 4 h prior to infection; 14 days
Protocol: RIVPA (SEQ ID NO. 5) is also effective when administered by itself. Multiple studies with IV administered RIVPA (SEQ ID NO. 5) were conducted in a MRSA bacteremia model. […] In the first study, MRSA (USA300, 7.3 log 10 cfu) was administered via IV injection into the tail vein of female Balb/c mice at time 0. Four hours prior to infection, a single dose of saline or RIVPA (SEQ ID NO. 5) at the indicated dose levels was injected IV into the tail vein. Sub-optimal antibiotic treatment (linezolid, 6.25 mg/kg) was administered once orally immediately after infection. Survival was monitored for 21 days after the infection. In the second study, RIVPA (SEQ ID NO. 5) (IV) or saline (IV) was administered once 4 h prior to infection with MRSA (strain USA300, 7.0 log10 cfu) via the tail vein into female nu/nu mice. Statistically significant differences (i.e., p≤05) in survival were found with the 50 mg/kg dose level as assessed using Kaplan Meier analysis of each treatment group relative to the saline control.

cynomolgus monkey = assay: cardiovascular (CV)/pulmonary study in cynomolgus monkey; assay type: in vivo
Text: In summary, the major toxicological finding was an acute-onset respiratory depression, accompanied by labored breathing, recumbency and transient decreased activity.

MRSA (UC6685) = assay: MRSA peritoneal infection model in combination with vancomycin; assay type: in vivo, mouse; conditions: female CF-1 mice, 50 mg/kg IV 48 or 72 h prior to inoculation, with vancomycin 3 mg/kg SC 1 and 5 h after infection; 5 days
Protocol: RIVPA (SEQ ID NO. 5) (50 mg/kg) or saline treatment was administered IV either 48 or 72 h prior to inoculation with MRSA (UC6685; 8.2×10^7 colony forming units [cfu]) to female CF-1 mice (N=10/group). Vancomycin treatment (3 mg/kg) was administered subcutaneously (SC), 1 and 5 h after infection. Survival was monitored once daily for 5 days.

S. aureus = S. aureus infection studies, single IV RIVPA treatment (Table 2 summary); assay type: in vivo, mouse; conditions: for % Successful Treatments Any Dose Schedule: success = at least 20% increase in survival over saline control
[1] = Phase 1 study, human pharmacokinetics; assay type: in vivo
Protocol: In the single-dose phase of a healthy volunteer Phase 1 trial, RIVPA (SEQ ID NO. 5) was rapidly eliminated, with plasma levels decreasing to less than 10 percent of the maximum concentration (Cmax) within 9 min after the start of the 4-minute IV infusion. Following the rapid decline, a slower elimination phase was observed. […] Maximum plasma concentrations and total exposure levels were dose-proportional and clearance of RIVPA (SEQ ID NO. 5) from the circulation was rapid, consistent with the mouse and NHP experience.
In light of the high clearance and short elimination half-life, accumulation following daily injection was not expected to occur.

leukopenic animals = assay: infection studies in leukopenic animals (antibiotic interference); assay type: in vivo
[2] = tested on: Klebsiella pneumoniae (Catalog No. 43816, ATCC); assay: Klebsiella peritoneal infection model; assay type: in vivo, mouse
Protocol: RIVPA (SEQ ID NO. 5) treatment (24 mg/kg) was administered either IP (24 h prior to infection or 4 h post-infection) or IV (4 h post-infection) to female Balb/c mice (N=8/group) inoculated with Klebsiella pneumoniae (Catalog No. 43816, ATCC) at either 2.8×10^5 cfu (FIG. 13—panel A) or 5.3×10^2 cfu (FIG. 13—panel B) and survival was monitored over 24 h. A survival endpoint is shown for animals receiving the higher inoculum of bacteria (panel A).

male C3H/HeN mice = assay: chemotherapy-induced oral and gastrointestinal mucositis in the mouse; assay type: in vivo
Protocol: In each study, 5-fluorouracil (60 mg/kg IP) was administered to male C3H/HeN mice on Days −4 and −2. […] […] Body weights were also measured daily and colitis severity was determined by video endoscopy on Days 4 and 7. In the first study, RIVPA (SEQ ID NO. 5) (25 mg/kg IV) was administered either once on Day −4 immediately prior to chemotherapy, twice on Days −4 and −2 immediately after chemotherapy or 3 times on Days −1, 2 and 5. […] In the second study, RIVPA (SEQ ID NO. 5) (25 mg/kg IV) was administered on either Days −1, 2 and 5, Days −1, 1 and 3 or Days 0, 2, and 4. […] In the third study, RIVPA (SEQ ID NO. 5) (25 or 5 mg/kg IV, as indicated) was administered either on Days −1, 2 and 5 or on Days 1 and 3. […] Statistical significance was assessed for oral mucositis using a chi-square analysis and for body weight area under the curve (AUC) with an ANOVA on ranks. […] Treatment with R(tBg)V1KR(tBg)V2 (SEQ ID NO. 91) and RIV(mp2)A-NH2 (SEQ ID NO. 92) was administered on Days −1 and 2 at a dose of 25 mg/kg IV.

[3] = mouse, 5-fluorouracil chemotherapy model, RIVPA IV

Substance: RIVPA-NH2 [RIVPA (SEQ ID NO. 5), RIVPA]
- proliferation of normal blood cells (human normal blood cells): did not promote the proliferation
- survival over the saline control (MRSA (strain USA300)): statistically significant enhanced survival
- clinical signs (cynomolgus monkey; 80 mg/kg, during dosing): transient drooping eye lids and prostration
- clinical signs (cynomolgus monkey; 220 mg/kg): transient, severe clinical signs
- respiratory/cardiovascular effects and mortality (cynomolgus monkey; 220 mg/kg, 1 animal): marked reduction in respiratory rate followed by bradycardia, hypotension and death
- respiratory effects (cynomolgus monkey; 20 or 80 mg/kg): No respiratory effects
- cardiac toxicity or QT prolongation (cynomolgus monkey; nonhuman primates): no cardiac toxicity or QT prolongation
- cardiovascular effects and ECG parameters (cynomolgus monkey; single IV doses of 20 or 80 mg/kg): no cardiovascular effects or changes in electrocardiogram (ECG) parameters
- survival (MRSA (UC6685)): increased survival
- dose dependence of effects (S. aureus; between 1 and 50 mg/kg in mouse): dose dependent
- dose levels consistently demonstrating efficacy (S. aureus; mouse, stand-alone IV): ≥ 25 mg/kg
- % Successful Treatments RIVPA administered 4 h prior to infection (S. aureus; single IV dose 1 mg/kg): 0%
- % Successful Treatments Any Dose Schedule (S. aureus; single IV dose 1 mg/kg): 0%
- % Successful Treatments RIVPA administered 4 h prior to infection (S. aureus; single IV dose 5 mg/kg): 33%
- % Successful Treatments Any Dose Schedule (S. aureus; single IV dose 5 mg/kg): 42%
- % Successful Treatments RIVPA administered 4 h prior to infection (S. aureus; single IV dose 25 mg/kg): 50%
- % Successful Treatments Any Dose Schedule (S. aureus; single IV dose 25 mg/kg): 67%
- % Successful Treatments RIVPA administered 4 h prior to infection (S. aureus; single IV dose 50 mg/kg): 100%
- % Successful Treatments Any Dose Schedule (S. aureus; single IV dose 50 mg/kg): 100%
- pre-dose concentrations ([1]; daily for 7 days, Days 5, 6, 7 and Day 8 (24 h after start of infusion on Day 7), all subjects): below the lower limit of quantitation (LLOQ)
- clearance from the circulation ([1]; human subjects, IV administration): within minutes
- Tmax ([1]; human, plasma, intravenous, after the start of infusion, dose range 0.15 mg/kg to 8 mg/kg, read-out: mean time of maximum concentration (Tmax)): 4 to 4.8 min
- maximum plasma concentrations and total exposure levels versus dose ([1]; single-dose phase): dose-proportional
- plasma levels relative to the maximum concentration (Cmax) ([1]; within 9 min after the start of the 4-minute IV infusion, single-dose phase): less than 10%
- interference with antibiotic efficacy (leukopenic animals): no interference
- systemic versus local administration ([2]; 24 mg/kg IV vs IP): as good or better than local administration
- survival at the lower inoculum ([2]; 5.3×10^2 cfu, 24 h): survived in all groups
- survival ([2]; female Balb/c mice, 24 mg/kg IP or IV, 24 h): increased survival
- treatment effectiveness on mucositis (male C3H/HeN mice; first study, 25 mg/kg IV 3 times on Days −1, 2 and 5): most effective
- duration of severe oral mucositis (male C3H/HeN mice; mouse, 5-fluorouracil 60 mg/kg IP Days −4 and −2, chemical burn of tongue Day 0, RIVPA IV): reduces; also recorded: statistically significant reduction
- body weight loss (male C3H/HeN mice; [3]): reduces
- severity of colitis (video endoscopy) (male C3H/HeN mice; [3]): reduces; also recorded: trend towards reduced colitis
- efficacy at decreased dose levels (male C3H/HeN mice; third study, 5 vs 25 mg/kg IV): decreased efficacy
- treatment effectiveness on mucositis (male C3H/HeN mice; third study, dosing every third day (Days −1, 2 and 5)): most effective
